Data from patent US20260263433A1, “TETRAZOLIUM AND FORMAZAN COMPOUNDS AND METHODS OF MAKING AND USING THE SAME” (ARIZONA BOARD OF REGENTS ON BEHALF OF THE UNIVERSITY OF …, priority 2022, published 2026).

Tests used:
[1] = Fe(II) coordination in buffered aqueous solution (optical absorption changes); format: physicochemical; conditions: absorption 500-800 nm
Method: These two compounds were retained in the experiments as controls.
The tetrazolium salts (FIGS. 4A-4B) were synthesized from the formazans by the process outlined in FIG. 4C, which included oxidation with N-bromo-succinimide. For structures featuring a 2-hydroxyphenyl group, the oxidation was carried out on methoxyphenyl precursors and followed by a demethylation step in the presence of BBr3. The tetrazolium compounds were isolated as bromide salts.

[2] = tested on: A549 (Lung); experiment: Antiproliferative activity, resazurin readout, A549; format: cell-based, human; conditions: 72 h incubation, 0.032-100 μM, mean ± SDM, n = 3
Method: (§1) Once the stability data and the information on the reduction and iron binding of the new cohort of tetrazolium salts had been obtained, the antiproliferative activity of the new cohort was assessed in a panel of mammalian cell lines. Cancer cells require more iron than normal cells in order to sustain fast proliferation rate. Therefore, compounds that interfere with intracellular iron availability display antiproliferative activity.^12 Indeed iron chelation and prochelation strategies could provide new therapeutic avenues in anticancer drug discovery.^4
(§2) Cancer cell lines of different origin were selected (ovarian A2780, breast MDAMB-231, colon Caco-2, and lung A549), and a normal cell line (MRC-5, lung fibroblasts) was selected as a comparison.
(§3) Because the colorimetric MTT reagent is one of the compounds being tested in this panel, the reduction of resazurin to brightly fluorescent resorufin was chosen as a readout for the assessment of antiproliferative activity.

[3] = tested on: panel of mammalian cell lines; experiment: Antiproliferative activity across the panel of cell lines; format: cell-based, human; conditions: 72 h, tested cell lines
Method: as §1, §2, §3

[4] = tested on: MDA-MB-231 (Breast); experiment: Antiproliferative activity, resazurin readout, MDA-MB-231; format: cell-based, human; conditions: 72 h incubation, 0.032-100 μM, mean ± SDM, n = 3
Method: as §1, §2, §3

[5] = tested on: Caco-2 (Colon); experiment: Antiproliferative activity, resazurin readout, Caco-2; format: cell-based, human; conditions: 72 h incubation, 0.032-100 μM, mean ± SDM, n = 3
Method: as §1, §2, §3

[6] = Reduction of tetrazolium salts by cyclic voltammetry in buffered aqueous solution; format: physicochemical; conditions: 50 mM PBS pH 7.4, 25° C., K3[Fe(CN)6] reference, irreversible reduction
Method: The reduction of all the tetrazolium salts was investigated by cyclic voltammetry in buffered aqueous solutions (50 mM phosphate buffered saline solution, pH 7.4, K3[Fe(CN)6] as reference E0=0.430 V vs. NHE, 25° C.). Each compound presents an irreversible reduction at a potential that varies considerably depending on the identity of the aryl substituents on the tetrazolium core. Although the peaks are rather broad and likely susceptible to shifts depending on the specific experimental conditions, the peak potentials (Table 1, referenced to NHE) of some of these tetrazolium compounds indicate that they are reduced outside the biologically relevant window. […] On the other hand, the fact that the tetrazolium compounds are harder to reduce relative to MTT (with the exception of the benzothiazole derivative 1b) makes them well suited for intracellular activation in the reducing microenvironment of malignant cells. Compounds 2b, 4b, 6b and 7b are likely to be reduced intracellularly to the formazan species.

[7] = tested on: MRC-5 (Normal lung); experiment: Antiproliferative activity, resazurin readout, MRC-5 normal lung fibroblasts; format: cell-based, human; conditions: 72 h incubation, 0.032-100 μM, mean ± SDM, n = 3
Method: as §1, §2, §3

[8] = Stability in fetal bovine serum monitored by HPLC; format: in vitro ADME; conditions: 24 h
Method: FIGS. 5A and 5B depict the assessment of stability of the tetrazolium-based prochelators in fetal bovine serum (FBS) for a period of 24 h.
The stability of exemplary tetrazolium compounds was tested in fetal bovine serum and monitored by HPLC analysis.

[9] = tested on: A2780 (Ovary); experiment: Antiproliferative activity, resazurin readout, A2780; format: cell-based, human; conditions: for IC50: 72 h incubation, 0.032-100 μM, mean ± SDM, n = 3
Method: as §1, §2, §3

[10] = tested on: A2780 ovarian cancer cells; experiment: Effect of iron supplementation on toxicity, LIVE/DEAD stain, flow cytometry; format: cell-based, human; conditions: compounds 40 μM with or without ferric ammonium citrate 50 μM or holo-transferrin 50 μM, 48 h
Method: FIGS. 6A-6B depict the effects of iron supplementation on toxicity in A2780 ovarian cancer cells. The percentage of dead cells was determined using the LIVE/DEAD fixable stain as measured by flow cytometry. FIG. 6A depicts the quantification of dead cells after treating in the presence of test compounds (40 μM) with or without ferric ammonium citrate (FAC, 50 μM) for 48 h. FIG. 6B depicts the quantification of dead cells after treating in the presence of test compounds (40 μM) with or without holo-transferrin (holo-TF, 50 μM) for 48 h. Experiments were conducted in triplicate and the values shown are averages ±standard deviation. **p<0.01, ***p<0.001, ****p<0.0001.
The biological activity of the tetrazolium and formazan compounds was investigated in A2780 cells, in which they presented the highest antiproliferative activity. In particular, experiments were performed to confirm that the antiproliferative activity of these compounds is associated with the availability of intracellular iron.

| Compound | IC50 [4] [µM] | IC50 [9] [µM] | IC50 [2] [µM] | Antiproliferative activity / toxicity in the cell panel, in words [3] | IC50 [5] [µM] | Ered vs. NHE (peak potential Ep) [6] [mV] | IC50 [7] [µM] | other results |
| --- | --- | --- | --- | --- | --- | --- | --- | --- |
| c1ccc(N=NC(=NNc2ccccc2)c2ccccn2)cc1 [6a] |  |  |  |  |  |  |  | Iron binding [1]: did not show any indication of iron binding |
| Cc1nc(-[n+]2nc(-c3ccccc3)nn2-c2ccccc2)sc1C.[Br-] [MTT, reference compound] | 48 ± 7 | 45 ± 9 | 44 ± 9 | moderate antiproliferative activities | 92 ± 7 | 94 | 32 ± 5 | Stability in serum [8]: significant degradation |
| c1ccc(NN=C(N=Nc2cnc3ccccc3n2)c2ccccc2)cc1 [QXF] | 22 ± 3 | 9 ± 2 |  | sub-micromolar or low-micromolar |  |  | 11 ± 2 |  |
| O=C(O)c1ccc(-n2nc(-c3ccccc3O)nc2-c2ccccc2O)cc1 [DFX, deferasirox, reference compound] |  |  |  |  |  |  |  | IC50 ([2]; Homo sapiens, A549): 21 ± 3 µM; IC50 ([4]; Homo sapiens, MDA-MB-231): 17 ± 1 µM; IC50 ([5]; Homo sapiens, Caco-2): 67 ± 2 µM; IC50 ([7]; Homo sapiens, MRC5): > 100 µM; IC50 ([9]; Homo sapiens, A2780): 15 ± 0.5 µM |
| [Br-].c1ccc(-n2nc(-c3ccccn3)n[n+]2-c2ccccc2)cc1 [6b] | > 100 | 74 ± 4 | > 100 | low toxicity | > 100 | −241 | > 100 | Effect of iron supplementation on cell death [10]: not altered by iron supplementation |
| Cc1nc(N=NC(=NNc2ccccc2)c2ccccc2)sc1C [MTF, reference compound] |  |  |  |  |  |  |  | Iron binding [1]: coordinate Fe(II) |
| c1ccc(NN=C(N=Nc2nccc3ccccc23)c2ccccc2)cc1 [IQF] | 1.4 ± 0.5 | 0.7 ± 0.1 |  | sub-micromolar or low-micromolar |  |  |  |  |
| c1ccc(-c2nn(-c3cnc4ccccc4n3)[n+](-c3ccccc3)n2)cc1 [QXT] | 26 ± 3 | 19 ± 2 |  |  |  |  | 45 ± 8 |  |
| Oc1ccccc1-n1nc(-c2ccccc2)n[n+]1-c1ccccc1.[Br-] [3b] | > 100 | > 100 | > 100 | low cytotoxicity | > 100 | −328 | > 100 |  |
| Oc1ccccc1C(N=Nc1ccccc1)=NNc1ccccc1 [7a] |  |  |  |  |  |  |  | Iron binding [1]: did not show any indication of iron binding |
| Oc1ccccc1-c1nn(-c2ccccn2)[n+](-c2ccccc2)n1.[Br-] [4b] | 17 ± 2 | 12 ± 3 | 28 ± 4 | promising antiproliferative activities | 29 ± 3 | −102 | > 100 | Effect of iron supplementation on cell death [10]: could be rescued by iron supplementation |
| c1ccc(NN=C(N=Nc2ccc3ccccc3n2)c2ccccc2)cc1 [QF] | 7 ± 2 | 14 ± 2 |  | sub-micromolar or low-micromolar |  |  | 89 ± 9 |  |
| [Br-].c1ccc(-c2nn(-c3ccccn3)[n+](-c3ccccc3)n2)cc1 [2b] | 16 ± 2 | 16 ± 3 | 17 ± 2 | promising antiproliferative activities | 13 ± 2 | −130 | > 100 | Effect of iron supplementation on cell death [10]: could be rescued by iron supplementation |
| [Br-].c1ccc(-c2nn(-c3nc4ccccc4s3)[n+](-c3ccccc3)n2)cc1 [1b] | 21 ± 2 | 23 ± 3 | 41 ± 3 | moderate antiproliferative activities | 40 ± 3 | 207 | 97 ± 10 | Stability in serum [8]: significant degradation |
| c1ccc(NN=C(N=Nc2ncc3ccccc3n2)c2ccccc2)cc1 [QZF] | 1.8 ± 0.5 | 0.6 ± 0.1 |  | sub-micromolar or low-micromolar |  |  | 4.2 ± 0.3 |  |
| [Br-].c1ccc(-c2nn(-c3nccc4ccccc34)[n+](-c3ccccc3)n2)cc1 [IQT] |  | 0.5 ± 0.1 |  |  |  |  | 14 ± 2 | IC50 values in A2780 cell lines, in words [9]: sub-micromolar |
| [Br-].c1ccc(-c2nn(-c3ccc4ccccc4n3)[n+](-c3ccccc3)n2)cc1 [QT] | 0.3 ± 0.1 | 0.8 ± 0.1 |  |  |  |  | 3.5 ± 0.8 | IC50 values in A2780 cell lines, in words [9]: sub-micromolar |

Now from value to molecule, other results behind:

| IC50 [4] [µM] | IC50 [9] [µM] | Compound | IC50 [2] [µM] | Antiproliferative activity / toxicity in the cell panel, in words [3] | IC50 [5] [µM] | Ered vs. NHE (peak potential Ep) [6] [mV] | IC50 [7] [µM] | other results |
| --- | --- | --- | --- | --- | --- | --- | --- | --- |
| > 100 | 74 ± 7 | Oc1ccccc1-c1nn(-c2ccccc2)[n+](-c2ccccc2)n1.[Br-] [7b] | > 100 | low toxicity | > 100 | −187 | > 100 |  |
| > 100 | 90 ± 10 | Oc1ccccc1-n1nc(-c2ccccn2)n[n+]1-c1ccccc1.[Br-] [5b] | > 100 | low cytotoxicity | > 100 | −380 | > 100 |  |
